From ChEMBL document CHEMBL1909046, “DrugMatrix in vitro pharmacology data”

Legend:
[1] = DRUGMATRIX: GABAA, Muscimol, Central radioligand binding (ligand: [3H] Muscimol); assay type: cell membranes, Rattus norvegicus, Wistar, Brain, Membrane; details: Not Active = under 50% inhibition at 10 µM
Progesterone receptor = molecular target: T1, Progesterone receptor (Bos taurus, UniProt Q690N0); experiment: DRUGMATRIX: Progesterone radioligand binding (ligand: [3H] R-5020); assay type: tissue-based, Uterus; details: Not Active = under 50% inhibition at 10 µM
T1 sequence (Q690N0 whole entry): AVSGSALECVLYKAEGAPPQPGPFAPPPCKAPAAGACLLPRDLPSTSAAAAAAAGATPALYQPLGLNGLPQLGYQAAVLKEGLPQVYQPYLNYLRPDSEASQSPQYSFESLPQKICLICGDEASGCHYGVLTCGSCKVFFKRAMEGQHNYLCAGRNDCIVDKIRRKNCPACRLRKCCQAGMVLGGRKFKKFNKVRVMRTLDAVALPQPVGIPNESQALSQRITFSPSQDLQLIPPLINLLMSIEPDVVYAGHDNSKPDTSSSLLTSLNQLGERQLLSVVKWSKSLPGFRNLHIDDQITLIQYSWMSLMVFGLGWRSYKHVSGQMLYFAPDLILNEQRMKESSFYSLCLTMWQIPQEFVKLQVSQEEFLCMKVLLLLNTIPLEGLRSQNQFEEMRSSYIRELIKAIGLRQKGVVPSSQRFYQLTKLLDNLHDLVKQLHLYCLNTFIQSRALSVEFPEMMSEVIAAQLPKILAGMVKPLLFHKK

[2] = molecular target: 5-hydroxytryptamine receptor 6 (Homo sapiens, UniProt P50406); assay type: cell membranes, HeLa, Membrane; details: hela; further: in other assays of this panel Not Active means under 50% inhibition at 10 µM
[3] = molecular target: T2, Alpha-1D adrenergic receptor (Homo sapiens, UniProt P25100); assay type: cell membranes, HEK293, Membrane; details: hek293; further: in other assays of this panel Not Active means under 50% inhibition at 10 µM
T2 sequence (P25100 whole entry): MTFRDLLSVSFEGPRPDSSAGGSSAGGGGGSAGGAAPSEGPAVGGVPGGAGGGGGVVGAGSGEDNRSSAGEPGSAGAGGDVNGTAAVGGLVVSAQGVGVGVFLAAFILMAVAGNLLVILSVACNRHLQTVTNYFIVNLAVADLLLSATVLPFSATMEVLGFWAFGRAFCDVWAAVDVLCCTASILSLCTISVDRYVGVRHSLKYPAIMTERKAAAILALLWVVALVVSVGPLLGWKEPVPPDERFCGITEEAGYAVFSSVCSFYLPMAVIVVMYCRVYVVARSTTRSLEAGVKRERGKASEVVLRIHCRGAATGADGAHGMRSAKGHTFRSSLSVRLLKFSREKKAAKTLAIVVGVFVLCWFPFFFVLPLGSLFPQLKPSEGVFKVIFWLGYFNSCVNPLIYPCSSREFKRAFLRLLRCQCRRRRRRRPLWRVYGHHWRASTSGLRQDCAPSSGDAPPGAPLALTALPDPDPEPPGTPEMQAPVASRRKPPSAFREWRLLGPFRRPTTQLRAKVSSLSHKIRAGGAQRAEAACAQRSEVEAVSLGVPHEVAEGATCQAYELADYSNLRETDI

[4] = DRUGMATRIX: Interleukin IL-1 radioligand binding (ligand: [125I] interleukin 1beta); assay type: cell membranes, Membrane; details: nih3t3; Not Active = under 50% inhibition at 10 µM
[5] = molecular target: Protein kinase C alpha type (Homo sapiens, UniProt P17252); assay type: cell-based; details: sf9;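 further: inhibition of PKCalpha kinase activity measured in an enzyme assay with histone as the phosphorylation substrate; in other assays of this panel Not Active means under 50% inhibition at 10 µM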
[6] = DRUGMATRIX: Glutamate, Kainate radioligand binding (ligand: [3H] Kainic acid); assay type: cell membranes, Rattus norvegicus, Wistar, Brain, Membrane; details: Not Active = under 50% inhibition at 10 µM
[7] = molecular target: T3, Alpha-1A adrenergic receptor (Rattus norvegicus, UniProt P43140); experiment: DRUGMATRIX: Alpha-1A adrenergic receptor radioligand binding (ligand: prazosin); assay type: cell membranes, Wistar, Submaxillary gland, Membrane; details: Not Active = under 50% inhibition at 10 µM
T3 sequence (P43140 whole entry): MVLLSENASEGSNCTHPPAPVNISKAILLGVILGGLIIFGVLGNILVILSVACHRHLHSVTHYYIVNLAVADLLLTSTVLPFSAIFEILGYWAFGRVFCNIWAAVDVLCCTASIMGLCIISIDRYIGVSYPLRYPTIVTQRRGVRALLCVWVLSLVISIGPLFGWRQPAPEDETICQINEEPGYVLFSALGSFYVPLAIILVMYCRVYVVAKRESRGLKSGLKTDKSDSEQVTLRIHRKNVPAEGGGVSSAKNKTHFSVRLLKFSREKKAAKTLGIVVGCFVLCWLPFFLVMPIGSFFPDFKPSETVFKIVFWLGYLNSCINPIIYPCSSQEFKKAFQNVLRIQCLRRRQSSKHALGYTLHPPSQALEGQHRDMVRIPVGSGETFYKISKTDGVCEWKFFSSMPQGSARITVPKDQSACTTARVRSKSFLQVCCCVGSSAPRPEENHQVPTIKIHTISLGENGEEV

Chain of 5-hydroxytryptamine receptor 6 (P50406 whole entry): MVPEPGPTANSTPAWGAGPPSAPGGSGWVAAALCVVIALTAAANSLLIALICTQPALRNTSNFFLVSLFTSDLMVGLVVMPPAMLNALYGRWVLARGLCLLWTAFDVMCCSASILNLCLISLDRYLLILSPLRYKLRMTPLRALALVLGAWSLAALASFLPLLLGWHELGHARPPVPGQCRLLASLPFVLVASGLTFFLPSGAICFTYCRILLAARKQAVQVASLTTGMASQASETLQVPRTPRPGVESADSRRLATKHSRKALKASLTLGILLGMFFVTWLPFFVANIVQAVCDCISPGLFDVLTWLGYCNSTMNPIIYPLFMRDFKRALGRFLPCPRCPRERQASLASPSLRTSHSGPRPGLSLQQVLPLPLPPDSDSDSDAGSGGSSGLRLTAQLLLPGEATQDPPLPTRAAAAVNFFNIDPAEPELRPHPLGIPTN

C/C=C/C[C@@H](C)[C@@H](O)[C@H]1C(=O)N[C@@H](CC)C(=O)N(C)CC(=O)N(C)[C@@H](CC(C)C)C(=O)N[C@@H](C(C)C)C(=O)N(C)[C@@H](CC(C)C)C(=O)N[C@@H](C)C(=O)N[C@H](C)C(=O)N(C)[C@@H](CC(C)C)C(=O)N(C)[C@@H](CC(C)C)C(=O)N(C)[C@@H](C(C)C)C(=O)N1C [CYCLOSPORINE]
Not Active: IC50 [1] | Ki [1] | IC50 (Progesterone receptor) | IC50 [2] | IC50 [3] | IC50 [4] | Ki [4] | IC50 [5] | IC50 [6] | Ki [6] | IC50 [7]

CN(C)/N=N/c1[nH]cnc1C(N)=O [DACARBAZINE]
Not Active: IC50 [1] | Ki [1] | IC50 (Progesterone receptor) | IC50 [2] | IC50 [3] | IC50 [4] | Ki [4] | IC50 [5] | IC50 [6] | Ki [6] | IC50 [7]

COc1ccc2c(c1)[C@]13CCCC[C@@H]1[C@H](C2)N(C)CC3 [DEXTROMETHORPHAN]
Not Active: IC50 [1] | Ki [1] | IC50 (Progesterone receptor) | IC50 [2] | IC50 [3] | IC50 [4] | Ki [4] | IC50 [5] | IC50 [6] | Ki [6] | IC50 [7]

CC(=O)Nc1c(I)c(NC(C)=O)c(I)c(C(=O)O)c1I [DIATRIZOIC ACID]
Not Active: IC50 [1] | Ki [1] | IC50 (Progesterone receptor) | IC50 [2] | IC50 [3] | IC50 [4] | Ki [4] | IC50 [5] | IC50 [6] | Ki [6] | IC50 [7]

COP(=O)(OC)OC=C(Cl)Cl [DICHLORVOS]
Not Active: IC50 [1] | Ki [1] | IC50 (Progesterone receptor) | IC50 [2] | IC50 [3] | IC50 [4] | Ki [4] | IC50 [5] | IC50 [6] | Ki [6] | IC50 [7]

O=C(O)Cc1ccccc1Nc1c(Cl)cccc1Cl [DICLOFENAC]
Not Active: IC50 [1] | Ki [1] | IC50 (Progesterone receptor) | IC50 [2] | IC50 [3] | IC50 [4] | Ki [4] | IC50 [5] | IC50 [6] | Ki [6] | IC50 [7]

C[C@H]1O[C@@H](O[C@H]2[C@@H](O)C[C@H](O[C@H]3[C@@H](O)C[C@H](O[C@H]4CC[C@@]5(C)[C@H](CC[C@@H]6[C@@H]5CC[C@]5(C)[C@@H](C7=CC(=O)OC7)CC[C@]65O)C4)O[C@@H]3C)O[C@@H]2C)C[C@H](O)[C@@H]1O [DIGITOXIN]
Not Active: IC50 [1] | Ki [1] | IC50 (Progesterone receptor) | IC50 [2] | IC50 [3] | IC50 [4] | Ki [4] | IC50 [5] | IC50 [6] | Ki [6] | IC50 [7]

CCN1CC(CCN2CCOCC2)C(c2ccccc2)(c2ccccc2)C1=O (stereo not drawn) [DOXAPRAM]
Not Active: IC50 [1] | Ki [1] | IC50 (Progesterone receptor) | IC50 [2] | IC50 [3] | IC50 [4] | Ki [4] | IC50 [5] | IC50 [6] | Ki [6] | IC50 [7]
